These results are taken from patent publication US7148338B2, “Nucleic acids encoding dipeptidyl peptidases” (The University of Sydney, priority 1999, dated 2006).

In data set [1] the target is T1, DPPIV (Homo sapiens, UniProt P27487). Nature of the data set: Inhibition of peptidase activity of purified DPPIV, substrate H-Gly-Pro-pNA. Format: biochemical. More on the design: His tag; made in house; host or cells: transfected COS-7 cells; solubilised with 1% Triton X-100. To be noted: 1 mM H-Gly-Pro-pNA, pH 7.4. The procedure: (§1) Cells (1×10^7) expressing each protein were sonicated in native buffer (50 mM sodium phosphate, 300 mM NaCl), then treated with 700 U DNAse for 20 min at room temperature. DPPIV is expressed at the cell surface, so 1% Triton X-100 was used to solubilize DPPIV/V5/His. Insoluble material was removed by centrifugation. The supernatant was incubated with 1 mL Talon® Metal Affinity Resin (Clontech) following the manufacturer's instructions for a batch/gravity flow procedure. The resin was washed with 50 mM sodium phosphate, containing 300 mM NaCl and 5 mM imidazole, and proteins were eluted using the same buffer containing 150 mM imidazole. Enzyme activity was used to monitor eluted fractions.
(§2) Enzyme assays were performed as described previously. Either clarified cell extract from 1×10^4 sonicated COS-7 cells or purified protein derived from 1×10^5 cells was incubated with substrate in 70 μL phosphate buffer, pH 7.4, for 30 min at 37° C., except where otherwise indicated. The specific DPPIV substrates, Gly-Pro-toluenesulfonate, H-Gly-Pro-p-nitroanilide (NA)/HCl (Sigma, St Louis, Mo., USA) and Gly-Pro-7-amino-4-trifluromethylcoumarin (Calbiochem, San Diego, Calif., USA) were tested. Other substrates tested were H-Ala-Pro-pNA/HCl, H-Arg-Pro-pNA acetate salt, H-Lys-Ala-pNA.2HCl, H-Asp-Pro-pNA, H-Ala-Ala-pNA/HCl, H-Ala-Ala-Pro-pNA/HCl, H-Ala-Ala-Phe-pNA, succinyl-Ala-Pro-pNA, H-Ala-Phe-Pro-pNA and Z-Ala-Pro-p-NA from Bachem (Switzerland). H-Ala-Pro-4-methoxyβNA/HCl, Z-Lys-Pro-4-methoxyβNAformate salt, H-Lys-Pro-4-methoxyβNA/HCl, Z-Ala-Pro-4-methoxyβNA, H-Gly-Pro-βNA and H-His-Ser-4-methoxyβNAacetate salt (Bachem) were tested for their ability to stain unfixed transfected cells. All inhibitors were (see Table 2) incubated with each purified enzyme in phosphate buffer, pH 7.4, for 15 min before the addition of substrate. After the addition of 1 mM H-Ala-Pro-pNA substrate for purified DPP8 and 1 mM H-Gly-Pro-pNA substrate for purified DPPIV, samples were incubated for 60 min at 37° C. All enzyme assays were performed in triplicate.

Data set [2] addresses T2, DPP8 (Homo sapiens, UniProt Q6V1X1). Nature of the data set: Inhibition of peptidase activity of purified DPP8, substrate H-Ala-Pro-pNA. More on the design: the full length DPP8 cDNA of 3.1 kb was cloned into the Xba I site of pcDNA3.1A/V5/His expression vector; His tag (C); made in house; host or cells: COS-7 cells, stably transfected. In kind it is biochemical. The following applies: for Residual activity (% of control): 1 mM H-Ala-Pro-pNA, pH 7.4. The protocol: as §1, §2

The target in data set [3] is T2, DPP8. Briefly: Substrate hydrolysis by extracts of DPP8-transfected COS-7 cells. In kind it is biochemical. Also noted: the full length DPP8 cDNA of 3.1 kb was cloned into the Xba I site of pcDNA3.1A/V5/His expression vector; expressed in transfected cells; host or cells: COS-7 (monkey kidney fibroblast) cells; clarified sonicated cell extract. To be noted: above the levels of untransfected COS-7 cells; data not shown. The procedure:
(§3) Monkey kidney fibroblast (COS-7) cells (American Type Culture Collection, CRL-1651) were grown and transfected as described previously. For making stable cell lines, Geneticin (G418; Gibco-BRL) was added to the medium, beginning 24 h after transfection. COS cell extracts were prepared by sonication followed by differential centrifugation and neither boiled nor reduced before SDS/PAGE (10% gel) and transfer to nitrocellulose, as described previously. The presence of DPP8 fused with the V5 epitope was detected using an anti-V5 mAb (Invitrogen). COS cell monolayers were fixed in cold ethanol before staining with anti-V5 mAb. Some monolayers were fixed in 4% paraformaldehyde and permeabilized with 0.1% Triton X-100 [35], then double-stained with wheat germ agglutinin to label Golgi apparatus and with goat anti-mouse IgG to label DPP8, conjugated to Alexa Fluor 488 and Alexa Fluor 594, respectively (Molecular Probes, Eugene, Oreg., USA). Flow cytometry and confocal scanning microscopy using a Leica TCS-NT confocal microscope have been described previously.
as §2
DPPIV expressed in COS-7 cells with or without the V5/His tag were positive controls, and negative controls included vector-only transfected COS07 cells. […] The pH optimum of DPP8 enzyme activity was 7.4 (FIG. 5A), similar to the pH 7.8 optimum DPPIV enzyme activity. […]

Another data set addresses T3, DPP8/V5/His (Homo sapiens, UniProt Q6V1X1).
T3 construct: the full length DPP8 cDNA of 3.1 kb was cloned into the Xba I site of pcDNA3.1A/V5/His expression vector; His tag (C); made in house; host or cells: COS-7 cells, stably transfected
Briefly: Substrate hydrolysis by purified recombinant DPP8/V5/His. In kind it is biochemical. The protocol: as §1, §2

Another data set deals with T4, DPPIV/V5/His (Homo sapiens, UniProt P27487).
T4 construct: His tag; made in house; host or cells: transfected COS-7 cells; solubilised with 1% Triton X-100
Nature of the data set: Substrate hydrolysis by purified recombinant DPPIV/V5/His. Format: biochemical. The procedure:
as §1, §2

The target of data set [4] is T2, DPP8. Nature of the data set: Enzyme kinetics (Km, Vmax) of purified DPP8. The following applies: for Km: Michaelis-Menten fit. Format: biochemical. More on the design: the full length DPP8 cDNA of 3.1 kb was cloned into the Xba I site of pcDNA3.1A/V5/His expression vector; His tag (C); made in house; host or cells: COS-7 cells, stably transfected. The procedure:
(§4) FIG. 7. DPP8 enzyme activity. (A) pH-dependence of DPP8 enzyme activity. (B) DPP8 and DPPIV enzyme kinetics. Means +/− SD of absorbance change per minute, multiplied by 1000 are shown. Curve fitting assumed Michaelis-Menten kinetics.
as §1, §2

In data set [5] the target is T1, DPPIV. Nature of the data set: Enzyme kinetics (Km, Vmax) of purified DPPIV. In kind it is biochemical. More on the design: His tag; made in house; host or cells: transfected COS-7 cells; solubilised with 1% Triton X-100. To be noted: for Km: Michaelis-Menten fit. The protocol:
as §4, §1, §2

For data set [6], the system named is DPP8-transfected COS cells and CHO cells. Nature of the data set: Cytochemical staining of unfixed transfected cell monolayers by substrates. Format: cell-based. The following applies: data not shown. The protocol:
as §3
Enzyme assays were performed as described previously. Either clarified cell extract from 1×10^4 sonicated COS-7 cells or purified protein derived from 1×10^5 cells was incubated with substrate in 70 μL phosphate buffer, pH 7.4, for 30 min at 37° C., except where otherwise indicated. […]

The target in data set [7] is T1, DPPIV. To be noted: reference [46]; cited from earlier work.

Non-standard residues stand in square brackets, D forms with d. Residues, ends and D or L forms follow the SMILES beside them. *: point of attachment. Sta = CC(C)C[C@H](N)[C@@H](O)CC(=O)O; pNA = O=[N+]([O-])c1ccc(N*)cc1; Isovaleryl = CC(C)CC(=O)*; Cbz = O=C(OCc1ccccc1)*

T1 sequence (P27487 whole entry): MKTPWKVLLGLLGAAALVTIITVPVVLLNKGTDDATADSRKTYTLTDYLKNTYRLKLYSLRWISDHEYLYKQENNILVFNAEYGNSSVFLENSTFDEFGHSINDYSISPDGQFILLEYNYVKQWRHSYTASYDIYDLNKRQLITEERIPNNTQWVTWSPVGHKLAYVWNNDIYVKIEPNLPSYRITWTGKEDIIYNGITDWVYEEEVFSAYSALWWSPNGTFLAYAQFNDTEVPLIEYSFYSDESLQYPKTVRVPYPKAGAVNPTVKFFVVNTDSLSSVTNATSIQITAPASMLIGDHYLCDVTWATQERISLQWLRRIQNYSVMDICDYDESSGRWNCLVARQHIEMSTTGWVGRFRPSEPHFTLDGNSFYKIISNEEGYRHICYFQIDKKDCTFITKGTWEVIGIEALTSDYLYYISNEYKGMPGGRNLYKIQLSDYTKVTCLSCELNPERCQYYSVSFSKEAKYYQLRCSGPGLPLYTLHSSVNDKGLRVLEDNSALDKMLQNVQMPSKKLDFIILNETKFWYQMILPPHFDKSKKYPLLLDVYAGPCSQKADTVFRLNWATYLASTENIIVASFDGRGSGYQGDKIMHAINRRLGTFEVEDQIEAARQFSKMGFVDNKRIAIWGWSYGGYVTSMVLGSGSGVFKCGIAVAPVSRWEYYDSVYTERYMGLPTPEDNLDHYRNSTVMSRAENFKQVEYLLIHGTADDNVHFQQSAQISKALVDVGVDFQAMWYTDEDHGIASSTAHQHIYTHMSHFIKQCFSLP
T4 sequence (P27487 whole entry): as above
T3 sequence (Q6V1X1 17-898 limits assumed): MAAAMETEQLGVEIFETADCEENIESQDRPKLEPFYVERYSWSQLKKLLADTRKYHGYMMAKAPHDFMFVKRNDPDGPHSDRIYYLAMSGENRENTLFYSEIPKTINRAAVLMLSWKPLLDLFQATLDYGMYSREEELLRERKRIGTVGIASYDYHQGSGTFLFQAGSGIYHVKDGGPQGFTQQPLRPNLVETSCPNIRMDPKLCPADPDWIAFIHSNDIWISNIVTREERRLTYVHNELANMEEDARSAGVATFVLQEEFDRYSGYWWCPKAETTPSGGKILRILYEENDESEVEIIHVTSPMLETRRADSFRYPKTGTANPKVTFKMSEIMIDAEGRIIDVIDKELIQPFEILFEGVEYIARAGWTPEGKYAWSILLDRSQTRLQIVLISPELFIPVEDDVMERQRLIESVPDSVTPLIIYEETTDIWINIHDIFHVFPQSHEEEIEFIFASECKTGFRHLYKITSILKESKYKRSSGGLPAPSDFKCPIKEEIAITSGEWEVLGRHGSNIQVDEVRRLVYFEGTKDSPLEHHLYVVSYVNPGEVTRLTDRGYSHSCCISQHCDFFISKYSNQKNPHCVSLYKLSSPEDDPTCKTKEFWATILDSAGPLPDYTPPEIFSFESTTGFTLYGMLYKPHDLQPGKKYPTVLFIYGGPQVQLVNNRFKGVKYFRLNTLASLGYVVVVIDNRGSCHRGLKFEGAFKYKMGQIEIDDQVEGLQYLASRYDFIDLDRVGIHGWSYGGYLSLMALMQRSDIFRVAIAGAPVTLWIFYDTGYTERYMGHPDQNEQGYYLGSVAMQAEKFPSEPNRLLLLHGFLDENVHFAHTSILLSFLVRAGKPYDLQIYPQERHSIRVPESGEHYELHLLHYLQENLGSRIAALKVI
T2 sequence (Q6V1X1 17-898 limits assumed): as above

`Cl.N=C(N)c1ccccc1` [Benzamidine/HCl]: the entries for the “Residual activity (% of control)” value at DPPIV [1] (inhibitor 10 mM) and at DPP8 [2] (inhibitor 10 mM) were 89 % of control and 82 % of control, respectively.
With `CC(C)CC(=O)N[C@H](C(=O)N[C@H](C(=O)N[C@@H](CC(C)C)[C@@H](O)CC(=O)N[C@@H](C)C(=O)N[C@@H](CC(C)C)[C@@H](O)CC(=O)O)C(C)C)C(C)C` [Pepstatin] (Isovaleryl-VV[Sta]A[Sta]-OH), the “Residual activity (% of control)” value at DPPIV [1] (inhibitor 2 μg mL^−1) is 110 % of control; on DPP8 [2] (inhibitor 2 μg mL^−1), 107 % of control.
For the molecule Aprotinin, the “Residual activity (% of control)” value with DPPIV [1] (inhibitor 4 μg mL^−1) is 81 % of control; with DPP8 [2] (inhibitor 4 μg mL^−1), 47 % of control.
In the case of `CC(=O)N[C@@H](CC(C)C)C(=O)N[C@@H](CC(C)C)C(=O)N[C@H](C=O)CCCNC(=N)N` [Leupeptin], the “Residual activity (% of control)” value was 104 % of control on DPPIV [1] (inhibitor 0.1 mM) and 93 % of control at DPP8 [2] (inhibitor 0.1 mM).
Consider `NC(N)=NCCC[C@H](N)C(=O)N1CCC[C@H]1C(=O)Nc1ccc([N+](=O)[O-])cc1` [H-Arg-Pro-pNA] (H-Arg-Pro-pNA), for which, at DPP8 [3], the “Hydrolysis of substrate by extracts of DPP8-transfected COS-7 cells” value (shortened to “Hydrolysis … of DPP8-transfected COS-7 cells”) is “hydrolyzed”. Besides, the “Hydrolysis (cleavage) of substrate by purified recombinant DPP8” value (“Hydrolysis (cleavage) of substrate” below) on DPP8/V5/His was “hydrolyzed”. Moreover, the “Hydrolysis of substrate by purified recombinant DPPIV” value at DPPIV/V5/His is listed as “hydrolyzed”.
Turning to `C[C@H](N)C(=O)N[C@@H](C)C(=O)N[C@@H](Cc1ccccc1)C(=O)Nc1ccc([N+](=O)[O-])cc1` [H-Ala-Ala-Phe-pNA] (H-Ala-Ala-Phe-pNA), the “Hydrolysis (cleavage) of substrate” value on DPP8/V5/His was “neither”.
With “Ala-Pro-Gly (APG) [peptide that mimics DPP8 substrates]”, the “Residual activity (% of control)” value with DPPIV [1] (inhibitor 10 mM) is listed as 67 % of control; with DPP8 [2] (inhibitor 10 mM) it was 51 % of control. Moreover, the “Inhibition of DPP8 enzyme activity (in words)” value with DPP8 [2] (purified DPP8) is “probably competitively inhibited”.
For `NCC(=O)N1CCC[C@H]1C(=O)Nc1ccc([N+](=O)[O-])cc1` [H-Gly-Pro-pNA, H-Gly-Pro-p-nitroanilide] (H-Gly-Pro-pNA), the “Hydrolysis (cleavage) of substrate” value on DPP8/V5/His is recorded as “hydrolyzed”. For the same molecule, on DPP8 [4], the Vmax was 3.5 ± 0.14 ΔA min^−1 × 1000 and the Km came to 467 ± 64 µM. Also, on DPPIV [5], the Vmax is listed as 7.2 ± 0.49 ΔA min^−1 × 1000 and the Michaelis constant (Km) amounted to 347 ± 88 µM. Besides, the “Hydrolysis of substrate by purified recombinant DPPIV” value at DPPIV/V5/His is reported as “hydrolyzed”.
Take `C[C@H](N)C(=O)N[C@@H](Cc1ccccc1)C(=O)N1CCC[C@H]1C(=O)Nc1ccc([N+](=O)[O-])cc1` [H-Ala-Phe-Pro-pNA] (H-Ala-Phe-Pro-pNA): the “Hydrolysis (cleavage) of substrate” value at DPP8/V5/His is “neither”.
`C[C@H](NC(=O)OCc1ccccc1)C(=O)N1CCC[C@H]1C(=O)Nc1ccc([N+](=O)[O-])cc1` [Z-Ala-Pro-pNA] (Cbz-Ala-Pro-pNA): the “Hydrolysis … of DPP8-transfected COS-7 cells” value on DPP8 [3] is “endopeptidase activity”.
Consider `COc1cc(NC(=O)[C@@H]2CCCN2C(=O)[C@H](C)N)cc2ccccc12.Cl` [Ala-Pro-4MβNA/HCl, H-Ala-Pro-4-methoxyβNA/HCl], for which the “Staining of DPP8-transfected cells by substrate” value in [6] is reported as “stained”.
On to `O[C@H](CS)[C@H](O)CS` (racemic) [Dithiothreitol], for which the “Residual activity (% of control)” value at DPPIV [1] (inhibitor 2 mM) is 109 % of control; at DPP8 [2] (inhibitor 2 mM), 108 % of control.
The like results for `NC(=O)CI` [Iodoacetamide] were, in that order, 115 % of control and 100 % of control.
In the case of `C[C@H](N)C(=O)N1CCC[C@H]1C(=O)Nc1ccc([N+](=O)[O-])cc1` [H-Ala-Pro-pNA] (H-Ala-Pro-pNA), at DPP8 [3], the “Hydrolysis … of DPP8-transfected COS-7 cells” value is recorded as “hydrolyzed”. Moreover, at DPP8/V5/His, the “Hydrolysis (cleavage) of substrate” value was “hydrolyzed”. In addition, on DPP8 [4], the Vmax is on record as 12.4 ± 0.9 ΔA min^−1 × 1000 and the Km was found to be 991 ± 171 µM. Besides, at DPPIV [5], the Vmax is listed as 9.6 ± 1.0 ΔA min^−1 × 1000 and the Km is 374 ± 134 µM. The “Hydrolysis of substrate by purified recombinant DPPIV” value at DPPIV/V5/His is on record as “hydrolyzed”.
With Gly-Gly-Gly (GGG) [peptide], the “Residual activity (% of control)” value is given as 106 % of control in the data set with DPPIV [1] (inhibitor 10 mM) and 99 % of control with DPP8 [2] (inhibitor 10 mM).
Regarding `O=S(=O)([O-])[O-].[Zn+2]` [Zinc sulphate], the “Inhibition of DPPIV enzyme activity (in words)” value on DPPIV [7] was “completely inhibits”.
On to `C[C@H](N)C(=O)N[C@@H](C)C(=O)N1CCC[C@H]1C(=O)Nc1ccc([N+](=O)[O-])cc1.Cl` [H-Ala-Ala-Pro-pNA] (H-Ala-Ala-Pro-pNA), for which the “Hydrolysis … of DPP8-transfected COS-7 cells” value at DPP8 [3] is “exhibited tripeptidyl peptidase activity”.
